Results: patent publication US7803765B2, “Methods of constructing biodiverse gene fragment libraries and biological modulators isolated therefrom” (Phylogica Limited, priority 2004, dated 2010)
Where no end group is shown, it is not given here.

B1: BGF 35: SCL/E47 peptide blocker; fusion peptide SEQ ID NO: 79, fragment-encoded SEQ ID NO: 81; H. influenzae fragment (peptide)
chain: MGKPIPNPLLGLDSTQAMGAPPKKKRKVAEFQGRRRQGLSINQWLEKYGYIEMQGNETFKLAVRELSNVVEETLLANNLDKKDLDWLVVVVLVV

How the values were obtained:
SCL/E2.22F interaction = target: T1, SCL/E2.22F interaction (Homo sapiens, UniProt P15884+P17542); test: specificity of blocking: two-hybrid in strain PRT480 expressing E2.22F and SCL; type: cell-based; conditions: yeast strain PRT480, specificity control
T1 construct: expressed in transfected cells; host or cells: Saccharomyces cerevisiae strain PRT480
Protocol: (§1) Subsequently, the specificity of blocking was assayed, by mating those strains that did recapitulate the blocked phenotype into a strain PRT480 expressing two interacting proteins selected from the group consisting of: (i) E2,2 2F and SCL; and (ii) ID and E47.

SCL/E47 interaction = test: reverse two-hybrid screen for antagonists of the SCL/E47 interaction in yeast; type: cell-based; conditions: re-screened clones
Description: The nucleic acid encoding the E47 protein was cloned into the bait vector pDD (SEQ NO: 61; FIG. 6) in operable connection with the LexA DNA binding domain. The pDD vector also contains a nucleic acid encoding the HIS3 gene (FIG. 6).
These vectors were transformed into the PRT 480 yeast strain (which contains two LexA-CYH2 chimeric reporter genes and two LexA-URA3 counter selectable reporter genes).
The process of screening the library is represented schematically in FIG. 7. […] Approximately 300,000 diploids were plated onto 30 cm plates containing complete synthetic media lacking histidine and tryptophan (ie., HW media), and supplemented with 0.06% (w/v) galactose/0.04% 5-FOA and glucose.
The FOA-resistant colonies were replica-plated from the master-plate onto plates containing HWU media, or media lacking histidine, tryptophan and leucine (ie. HWL media). The replica-plate media also contained various concentrations of galactose.
Library plasmids were re-transformed into strain PRT51, and the resultant yeast cells were again mated with strain PRT 480 SCL/E47 haploids. Diploids were re-screened for their ability to block the SCL/E47 interaction, by plating in the forward direction on plates containing HWU or HWL media supplemented with various concentrations of galactose.

Id1/E47 interaction = target: T2, Id1/E47 interaction (Homo sapiens, UniProt P15923+P41134); test: specificity of blocking: two-hybrid in strain PRT480 expressing ID and E47; type: cell-based; conditions: yeast strain PRT480, specificity control
T2 construct: expressed in transfected cells; host or cells: Saccharomyces cerevisiae strain PRT480
T2 sequence (P41134 1-155): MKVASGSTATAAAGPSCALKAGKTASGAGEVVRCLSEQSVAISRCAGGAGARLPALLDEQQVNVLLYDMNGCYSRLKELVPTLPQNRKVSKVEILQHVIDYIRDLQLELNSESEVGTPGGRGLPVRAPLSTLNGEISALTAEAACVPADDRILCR
T2 sequence (P15923 1-651 isoform P15923-2): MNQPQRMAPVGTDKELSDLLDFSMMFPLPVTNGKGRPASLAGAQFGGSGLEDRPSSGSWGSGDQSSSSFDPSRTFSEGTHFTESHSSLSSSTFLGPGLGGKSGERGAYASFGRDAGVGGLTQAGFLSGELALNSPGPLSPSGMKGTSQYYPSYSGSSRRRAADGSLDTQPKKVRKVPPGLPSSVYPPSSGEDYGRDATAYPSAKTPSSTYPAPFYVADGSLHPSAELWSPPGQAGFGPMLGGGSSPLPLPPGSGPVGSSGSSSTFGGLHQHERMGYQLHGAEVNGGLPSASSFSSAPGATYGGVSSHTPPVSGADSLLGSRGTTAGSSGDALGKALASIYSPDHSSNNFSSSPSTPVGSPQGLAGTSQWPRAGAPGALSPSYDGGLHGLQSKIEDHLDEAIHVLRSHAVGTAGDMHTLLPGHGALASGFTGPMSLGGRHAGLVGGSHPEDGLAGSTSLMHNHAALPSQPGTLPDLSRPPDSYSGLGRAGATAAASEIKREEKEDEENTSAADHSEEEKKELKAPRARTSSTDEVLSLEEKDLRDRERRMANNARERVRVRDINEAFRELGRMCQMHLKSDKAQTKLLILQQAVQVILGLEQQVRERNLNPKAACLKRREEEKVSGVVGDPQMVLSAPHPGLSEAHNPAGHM
Protocol: as §1

monoclonal antibody 2C7 = test: competition DELFIA of 2C7pan clones binding to 2C7; conditions: for inhibition of clone binding to 2C7 by recombinant Der p 1: competitor recombinant Der p 1
Description: Competition DELIFAs were then used to study the interaction between the monoclonal antibody and the peptides identified, using recombinant Der p 1 or the epitope of the 2C7 antibody (GST-P1fragment 98-140 […]) as a competitor.

Der p 1 = test: immunization of mice with 2C7pan phage clones, serum tested by DELFIA and competitive DELFIA; type: in vivo; conditions: for anti-Der p 1 immune response in immunized mice: 10^11 phage particles in Freunds complete adjuvant, bled after first booster, DELFIA; for inhibition of immune serum binding to Der p 1 by recombinant Der p 1: competitive DELFIA, BSA as negative control
Protocol: The clones, 2C7pan clones 9, 26 and 42, described in Example 8 were then used to immunize mice. Phage were purified by CsCl gradient centrifugation and then used to immunize mice. Each injection consisted of 10^11 phage particles suspended in Freunds complete adjuvant. After the first booster mice were bled and tested by DELFIA for binding to Der p 1. Furthermore, the specificity of the immune response for Der p 1 was tested using competitive DELFIA.

[1] = tested on: anti-Der p 1 monoclonal antibody 2C7; test: T7-DELFIA binding of phage-displayed peptides to panning antibody 2C7; conditions: 50 μl lysate in the standard T7-DELFIA; 500 ng/well 2C7
Protocol: The monoclonal antibody (approximately 10 μg) was adsorbed to a Petri dish and the amplified phage display library brought into contact with the adsorbed antibody.
The eluate after round three was amplified and ninety-nine individual T7 clones were tested for binding to the panning antibody 2C7 using a dissociation-enhanced ianthinide fluoroimmunoassay (DELFIA) with 500 ng/well 2C7. Assays were performed essentially according to manufacturer's instructions (Perkin Elmer Life Sciences). The first ligand used in the DELFIA was T7lysate (ie the library) (1:2 in assay buffer); second ligand: SIGMA biotinylated anti-T7 monoclonal antibody 1:10,000 (mouse), Strep-Eur+enhancement solution).

T1 sequence (P17542 whole entry): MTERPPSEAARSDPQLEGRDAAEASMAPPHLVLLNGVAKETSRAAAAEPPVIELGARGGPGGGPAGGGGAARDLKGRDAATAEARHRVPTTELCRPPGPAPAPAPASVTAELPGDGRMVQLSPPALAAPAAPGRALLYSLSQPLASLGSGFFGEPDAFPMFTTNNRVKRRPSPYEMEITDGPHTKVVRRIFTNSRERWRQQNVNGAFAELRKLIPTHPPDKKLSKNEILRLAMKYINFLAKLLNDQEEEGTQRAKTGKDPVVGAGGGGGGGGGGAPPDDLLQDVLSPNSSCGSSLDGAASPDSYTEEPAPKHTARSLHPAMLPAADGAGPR
T1 sequence (P15884 whole entry): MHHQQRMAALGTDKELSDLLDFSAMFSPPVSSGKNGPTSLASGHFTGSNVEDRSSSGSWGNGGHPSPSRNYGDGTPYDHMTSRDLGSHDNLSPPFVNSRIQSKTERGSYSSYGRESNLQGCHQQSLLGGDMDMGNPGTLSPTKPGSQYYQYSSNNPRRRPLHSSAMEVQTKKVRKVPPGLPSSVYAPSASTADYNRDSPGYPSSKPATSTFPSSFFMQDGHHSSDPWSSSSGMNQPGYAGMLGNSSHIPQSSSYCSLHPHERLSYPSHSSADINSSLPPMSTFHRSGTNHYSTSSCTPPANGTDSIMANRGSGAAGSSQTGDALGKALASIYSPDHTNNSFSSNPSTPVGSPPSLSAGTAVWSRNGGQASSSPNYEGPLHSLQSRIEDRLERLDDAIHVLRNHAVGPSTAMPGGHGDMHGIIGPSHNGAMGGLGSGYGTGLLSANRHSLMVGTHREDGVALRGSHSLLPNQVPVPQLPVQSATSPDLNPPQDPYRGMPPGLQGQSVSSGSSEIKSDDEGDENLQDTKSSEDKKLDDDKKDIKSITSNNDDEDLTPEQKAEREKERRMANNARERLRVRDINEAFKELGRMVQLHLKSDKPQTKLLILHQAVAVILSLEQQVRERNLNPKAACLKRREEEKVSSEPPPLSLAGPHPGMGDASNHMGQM

Molecule | Target interaction SCL/E2.22F blocked (SCL/E2.22F interaction) | Target interaction SCL/E47 blocked (SCL/E47 interaction) | Target interaction Id1/E47 blocked (Id1/E47 interaction) | inhibition of clone binding to 2C7 by GST-P1fragment 98-140 (monoclonal antibody 2C7; competitor GST-P1fragment 98-140 (2C7 epitope)) | inhibition of clone binding to 2C7 by recombinant Der p 1 (monoclonal antibody 2C7) | anti-Der p 1 immune response in immunized mice (Der p 1) | inhibition of immune serum binding to Der p 1 by recombinant Der p 1 (Der p 1) | TRF (time resolved fluorometry) binding to 2C7 [1] [TRF]
BGF 24: SCL/E47 peptide blocker; fusion peptide SEQ ID NO: 75, fragment-encoded SEQ ID NO: 77; T. maritima fragment (MGKPIPNPLLGLDSTQAMGAPPKKKRKVAEFRSDYKDDDDKLIKHHWVLSIITTASR) | − | + | − |  |  |  |  | 
GDPN S S S V D K L G Y W R V T E S S N E (GDPNSSSVDKLGYWRVTESSNE; numbers in words are those of the source; also: displayed on T7 phage) [Clone 2c7pan42] |  |  |  | higher levels of inhibition | only partially inhibited | an anti-Der p 1 immune response was induced | inhibited by the addition of recombinant Der p 1 | 64000
BGF 13: SCL/E47 peptide blocker; fusion peptide SEQ ID NO: 71, fragment-encoded SEQ ID NO: 73; H. influenzae fragment (MGKPIPNPLLGLDSTQAMGAPPKKKRKVAEFGFCSNQMREM) | − | + | − |  |  |  |  | 
GDPN S S T S P R (GDPNSSTSPR; numbers in words are those of the source; also: displayed on T7 phage) [Clone 2c7pan8] |  |  |  |  | specifically inhibited |  |  | 1900
BGF 05: non-specific blocker clone; fusion peptide SEQ ID NO: 63, fragment-encoded SEQ ID NO: 65; H. influenzae fragment (MGKPIPNPLLGLDSTQAMGAPPKKKRKVAEFARTTTTRLINQSVVRKIWLYRDAR) | + | + | + |  |  |  |  | 
GDP R T H R (GDPRTHR; numbers in words are those of the source; also: displayed on T7 phage) [Clone 2c7pan26] |  |  |  |  | specifically inhibited | an anti-Der p 1 immune response was induced | inhibited by the addition of recombinant Der p 1 | 8500
GDPN S A S G T A (GDPNSASGTA; numbers in words are those of the source; also: displayed on T7 phage) [Clone 2c7pan9] |  |  |  |  | specifically inhibited | an anti-Der p 1 immune response was induced | inhibited by the addition of recombinant Der p 1 | 17000
GDPN S R G K S R E Y L S (GDPNSRGKSREYLS; numbers in words are those of the source; also: displayed on T7 phage) [Clone 2c7pan14] |  |  |  |  | specifically inhibited |  |  | 1800
BGF 06: SCL/E47 peptide blocker; fusion peptide SEQ ID NO: 67, fragment-encoded SEQ ID NO: 69; A. aeolicus fragment (MGKPIPNPLLGLDSTQAMGAPPKKKRKVAEFRSDYKDDDDKAYHIIAVCFLIKVS) | − | + | − |  |  |  |  | 
B1 | − | + | − |  |  |  |  | 
